The text below walks through data of patent US20210206773A1, “DRUG FOR TREATING DISORDERS OF CORNEAL EPITHELIUM” (EA PHARMA CO., LTD., priority 2014, published 2021).

The test system of assay [1] is HCE cells (human corneal epithelial cells). Briefly: Suppressive effect on cell injury under hyperosmotic conditions (MTT method). Format: cell-based. The settings on record: 24 hours, hyperosmotic medium with 150 mM NaCl and 160 mM NaCl, or 320 mM glucose, FIG. 1 to FIG. 3. The procedure:
HCE cells (human corneal epithelial cells) were cultured for 24 hours in a hyperosmotic medium containing a compound of Formula (1aa) (hereinafter, Compound (1aa)) (as a hydrate). The medium was adjusted to fulfill the hyperosmotic conditions using 150 mM NaCl and 160 mM NaCl, or 320 mM glucose. The number of live cells was measured by the MTT method, and relative values of light absorbance with respect to the light absorbance of the control (isotonic pressure conditions) were calculated. The value is expressed as average value±S.D. (n=3), **P<0.01.

The test system is the same in assay [2]. Briefly: Suppressive effect on cell injury caused by ethanol (MTT method). Type of assay: cell-based. The settings on record: 4 v/v % ethanol, FIG. 4. On the procedure:
HCE cells (human corneal epithelial cells) were cultured in a medium containing Compound (1aa) and 4 v/v % ethanol. The number of live cells was measured by the MTT method, and relative values of light absorbance with respect to the light absorbance of the control (absence of ethanol) were calculated. The value is expressed as average value±S.D. (n=3), *P<0.05; and **P<0.01.
On the technique in general: Tetrazolium dyes change colour on reduction, which living cells bring about.

The test system of assay [3] is HCE cells. Briefly: Suppressive effect on apoptosis under hyperosmotic conditions (caspase-3-like activity, fluorescent peptide substrate). Format: cell-based, human. Conditions: 160 mM NaCl, 3 hours and 6 hours, FIG. 5. On the procedure:
HCE cells were cultured in a hyperosmotic medium containing Compound (1aa) and 160 mM NaCl. After culturing for 3 hours and 6 hours, caspase-3-like activity, which is a marker for apoptosis, was measured using a fluorescent peptide substrate, and the results are presented in FIG. 5. The value is expressed as average value±S.D. (triplicate), **P<0.01, and the term n.s. means “not significant”.

For assay [4], the system named is dry eye model rat. Description: Therapeutic effect on corneal surface injury in dry eye model rat (lacrimal glands removed). Format: in vivo. Conditions: 5 μL of aqueous solution 0.05 w/v % (1.5 mM) three times a day, 1 to 5 weeks after removal of lacrimal glands. The procedure: The lacrimal glands of a rat were removed, and a dry eye model was produced. After 1 to 5 weeks from the removal of lacrimal glands, 5 μL of an aqueous solution containing Compound (1aa) (0.05 w/v %, 1.5 mM) was administered to the rat three times a day. The value is expressed as average value±S.E.M., *P<0.05; and **P<0.01.

In assay [5] the test system is muc1 and muc16 messenger RNAs in HCE cells. Briefly: Change in amount of expression of mucin messenger RNA (real time RT-PCR). Type of assay: cell-based, human. The settings on record: 3 hours and 24 hours, FIG. 8. The procedure:
HCE cells were cultured in a medium containing Compound (1aa). The amounts of expression of muc1 and muc16 messenger RNAs after culturing for 3 hours and 24 hours were measured by a real time RT-PCR method. Relative values of the amount of expression with respect to the amount of expression of actin messenger RNA were calculated, and the results are presented in FIG. 8. The value is expressed as average value±S.D. (triplicate), *P<0.05; and **P<0.01.

Turning to `O=C1NCC2=C1[C@@H](c1ccccc1)N(C(=O)CO)[C@@H]1CCCC[C@H]1N2` [Compound (1aa), (1R,8R,10R)-9-(2-hydroxyacetyl)-8-phenyl-2,5,9-triazatricyclo[8.4.0.0^3,7]tetradeca-3(7)-en-6-one], the “survival rate of corneal epithelial cells under hyperosmotic conditions (number of live cells, relative light absorbance vs control)” value in assay [1] is “noticeably suppressed the decrease in the survival rate of corneal epithelial cells”. Further, the “survival rate of corneal epithelial cells with ethanol (number of live cells, relative light absorbance vs control)” value in assay [2] was “noticeably suppressed the decrease in the survival rate of corneal epithelial cells”. The “hyperosmotic stress-dependent apoptosis (caspase-3-like activity)” value in assay [3] is on record as “noticeably suppressed hyperosmotic stress-dependent apoptosis”. Moreover, in assay [4] (FIG. 6), the “amount of lacrimal fluid (cotton thread test)” value was “increasing the amount of lacrimal fluid”. For the same compound, the “injury of the corneal surface (fluorescein scores)” value in assay [4] (FIG. 7) was “suppressed injury of the corneal surface”. For the same compound, the “amount of expression of mucin (muc1 and muc16 messenger RNAs relative to actin messenger RNA)” value in assay [5] is “increases the amount of expression of mucin”.
